Experimental data from paper PMC3298755 (Nature Chemical Biology, 2011).
Like-named read-outs stand apart in the source and are kept apart here.

Columns and labels:
COX-2 in stimulated DRGs [1] = type: cell-based, mouse; settings: read-out: IC50 for inhibition of 2-AG oxidation in DRGs
COX-2 in stimulated DRGs [2] = type: cell-based, mouse; settings: read-out: IC50 for inhibition of AEA oxidation in DRGs
COX-2 in stimulated DRGs [3] = type: cell-based, mouse
stimulated DRGs = experiment: Substrate levels; type: cell-based, mouse
FAAH = settings: read-out: IC50, FAAH inhibition; in vitro; ref [29]; cited from earlier work
mCOX-2 = target: T1, mCOX-2 (Mus musculus, UniProt Q05769); experiment: Inhibition of COX-2 oxygenation of AA, PG formation by LC-MS-MS; type: biochemical
T1 sequence (Q05769 18-604): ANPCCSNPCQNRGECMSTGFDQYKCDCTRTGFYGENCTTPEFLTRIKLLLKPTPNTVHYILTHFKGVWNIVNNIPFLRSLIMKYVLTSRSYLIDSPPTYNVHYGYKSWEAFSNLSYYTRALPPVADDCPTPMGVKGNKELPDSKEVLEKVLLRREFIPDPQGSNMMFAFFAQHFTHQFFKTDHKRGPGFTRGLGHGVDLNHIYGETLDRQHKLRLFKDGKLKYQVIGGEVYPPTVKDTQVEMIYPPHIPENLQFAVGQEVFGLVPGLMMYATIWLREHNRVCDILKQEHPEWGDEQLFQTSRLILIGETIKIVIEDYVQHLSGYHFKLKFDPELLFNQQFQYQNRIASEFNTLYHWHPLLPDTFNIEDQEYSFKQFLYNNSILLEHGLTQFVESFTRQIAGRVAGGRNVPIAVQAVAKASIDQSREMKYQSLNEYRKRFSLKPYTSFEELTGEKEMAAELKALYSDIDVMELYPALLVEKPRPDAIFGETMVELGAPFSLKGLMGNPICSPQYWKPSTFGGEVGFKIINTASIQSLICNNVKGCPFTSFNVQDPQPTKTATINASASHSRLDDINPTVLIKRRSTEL

Structure (SMILES)	IC50 (COX-2 in stimulated DRGs [1]) [µM]	IC50 (COX-2 in stimulated DRGs [2]) [µM]	Inhibition of the synthesis of PGs in DRGs (COX-2 in stimulated DRGs [3])	Amount of 2-AG in cell extracts (stimulated DRGs)	Amount of AA in cell extracts (stimulated DRGs)	Amount of AEA in cell extracts (stimulated DRGs)	IC50 (FAAH) [µM]	Inhibition of AA oxidation by COX-2 (mCOX-2; at either 5 or 50 μM substrate concentrations)	Inhibition of the synthesis of PGs in DRGs (COX-2 in stimulated DRGs [3]; stimulated DRGs, at concentrations that inhibited PG-G and PG-EA synthesis)	IC50, inhibition of COX-2 oxygenation of AA (result in words) (mCOX-2; 50 μM AA, 15 min pre-incubation, 30 s reaction, LC-MS-MS)
C[C@@H](C(=O)O)c1ccc(-c2ccccc2)c(F)c1 [(R)-flurbiprofen]	5.8 ± 2.9	6 ± 2.7	did not inhibit	increased	did not increase	increased	> 1000			
CC(C)Cc1ccc([C@@H](C)C(=O)O)cc1 [(R)-ibuprofen]				increased	did not increase	increased				
COc1ccc2cc([C@@H](C)C(=O)O)ccc2c1 [(R)-naproxen]				increased	did not increase	increased		did not inhibit	did not inhibit	
Cc1ccc(Nc2c(F)cccc2Cl)c(CC(=O)O)c1 [Lumiracoxib]										no inhib.
